Measurements reported in patent US10479795B2 (Incyte Corporation, priority 2016, dated 2019).
Counter-ions that a name gives are not always drawn.

Experiments:
[1] = target: PI3Kδ (p110δ/p85α) Recombinant Human Protein (Homo sapiens (Human), UniProt O00329); test: PI3Kδ Scintillation Proximity Assay; format: biochemical
Excerpt: Example C. PI3Kδ Scintillation Proximity Assay
[γ-^33P]ATP (10 mCi/mL) and Wheat Germ Agglutinin (WGA) YSi SPA Scintillation Beads was purchased from Perkin-Elmer (Waltham, Mass.). Lipid kinase substrate, D-myo-Phosphatidylinositol 4,5-bisphosphate (PtdIns(4,5)P2)D (+)-sn-1,2-di-O-octanoylglyceryl, 3-O-phospho linked (PIP2), CAS 204858-53-7, was purchased from Echelon Biosciences (Salt Lake City, Utah). PI3Kδ (p110δ/p85α) Recombinant Human Protein was purchased from Eurofins (St Charles, Mo.). ATP, MgCl2, DTT, EDTA, MOPS and CHAPS were purchased from Sigma-Aldrich (St. Louis, Mo.).
(§1) The kinase reaction was conducted in polystyrene 384-well Greiner Bio-one white plate from Thermo Fisher Scientific in a final volume of 25 μL. Inhibitors were first diluted serially in DMSO and added to the plate wells before the addition of other reaction components. The final concentration of DMSO in the assay was 2%. The PI3Kδ assay was carried out at room temperature in 20 mM MOPS, pH 6.7, 10 mM MgCl2, 5 mM DTT and CHAPS 0.03%. Reactions were initiated by the addition of ATP, the final reaction mixture consisted of 20 μM PIP2, 2 μM ATP, 0.5 μCi [γ-^33P] ATP, 3.4 nM PI3Kδ. Reactions were incubated for 120 min and terminated by the addition of 40 μL SPA beads suspended in quench buffer: 163 mM potassium phosphate pH 7.8, 20% glycerol, 25 mM EDTA. The final concentration of SPA beads is 1.0 mg/mL. After the plate sealing, plates were shaken overnight at room temperature and centrifuged at 1500 rpm for 10 min, the radioactivity of the product was determined by scintillation counting on Topcount (Perkin-Elmer). IC50 determination was performed by fitting the curve of percent of the solvent control activity versus the log of the inhibitor concentration using the GraphPad Prism 6.0 software.

[2] = target: PI3Kγ (p110γ) Recombinant Human Protein (Homo sapiens (Human), UniProt P48736); test: PI3K-γ Scintillation Proximity Assay; format: biochemical; conditions: read-out: PI3Kγ IC50
Procedure: [γ-^33P]ATP (10 mCi/mL) and Wheat Germ Agglutinin (WGA) YSi SPA Scintillation Beads was purchased from Perkin-Elmer (Waltham, Mass.). […] PI3Kγ (p110γ) Recombinant Human Protein was purchased from Life technology (Grand Island, N.Y.). ATP, MgCl2, DTT, EDTA, MOPS and CHAPS were purchased from Sigma-Aldrich (St. Louis, Mo.).
as §1, with “PI3Kγ” for “PI3Kδ”, “ATP, 3.4 nM PI3Kδ. Reactions were incubated for 120 min and terminated by the addition of 40 μL SPA beads suspended in quench buffer: 163 mM potassium phosphate pH 7.8, 20% glycerol, 25 mM EDTA.” left out

PI3Kγ (p110γ) Recombinant Human Protein, sequence (P48736 whole entry): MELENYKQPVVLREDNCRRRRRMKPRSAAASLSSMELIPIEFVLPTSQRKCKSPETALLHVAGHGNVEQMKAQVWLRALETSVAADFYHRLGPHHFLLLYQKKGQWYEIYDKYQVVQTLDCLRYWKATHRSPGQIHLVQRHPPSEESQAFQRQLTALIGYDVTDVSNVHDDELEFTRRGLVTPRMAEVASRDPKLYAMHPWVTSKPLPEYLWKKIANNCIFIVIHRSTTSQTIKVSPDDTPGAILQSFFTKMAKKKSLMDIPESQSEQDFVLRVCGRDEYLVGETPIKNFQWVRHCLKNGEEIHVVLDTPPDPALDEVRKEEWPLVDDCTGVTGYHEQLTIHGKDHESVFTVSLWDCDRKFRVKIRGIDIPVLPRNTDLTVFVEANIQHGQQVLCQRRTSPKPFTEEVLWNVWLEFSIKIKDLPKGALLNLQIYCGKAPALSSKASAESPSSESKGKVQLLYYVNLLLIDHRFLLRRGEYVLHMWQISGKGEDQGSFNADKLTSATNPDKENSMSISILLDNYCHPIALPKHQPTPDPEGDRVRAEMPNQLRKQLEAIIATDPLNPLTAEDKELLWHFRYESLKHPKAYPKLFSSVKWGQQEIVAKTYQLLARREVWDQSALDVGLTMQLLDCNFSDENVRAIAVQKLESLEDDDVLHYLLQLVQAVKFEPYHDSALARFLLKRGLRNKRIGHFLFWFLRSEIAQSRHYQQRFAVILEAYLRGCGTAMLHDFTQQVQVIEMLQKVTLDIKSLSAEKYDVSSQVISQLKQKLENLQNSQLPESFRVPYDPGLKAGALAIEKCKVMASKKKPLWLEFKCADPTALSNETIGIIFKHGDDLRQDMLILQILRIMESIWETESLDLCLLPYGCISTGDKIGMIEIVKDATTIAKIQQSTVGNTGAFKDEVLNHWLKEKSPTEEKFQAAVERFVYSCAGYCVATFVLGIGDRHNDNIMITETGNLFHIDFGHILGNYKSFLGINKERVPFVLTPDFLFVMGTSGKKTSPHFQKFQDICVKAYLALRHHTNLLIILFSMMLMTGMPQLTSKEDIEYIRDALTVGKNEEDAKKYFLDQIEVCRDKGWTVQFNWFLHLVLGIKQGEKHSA
PI3Kδ (p110δ/p85α) Recombinant Human Protein, sequence (O00329 whole entry): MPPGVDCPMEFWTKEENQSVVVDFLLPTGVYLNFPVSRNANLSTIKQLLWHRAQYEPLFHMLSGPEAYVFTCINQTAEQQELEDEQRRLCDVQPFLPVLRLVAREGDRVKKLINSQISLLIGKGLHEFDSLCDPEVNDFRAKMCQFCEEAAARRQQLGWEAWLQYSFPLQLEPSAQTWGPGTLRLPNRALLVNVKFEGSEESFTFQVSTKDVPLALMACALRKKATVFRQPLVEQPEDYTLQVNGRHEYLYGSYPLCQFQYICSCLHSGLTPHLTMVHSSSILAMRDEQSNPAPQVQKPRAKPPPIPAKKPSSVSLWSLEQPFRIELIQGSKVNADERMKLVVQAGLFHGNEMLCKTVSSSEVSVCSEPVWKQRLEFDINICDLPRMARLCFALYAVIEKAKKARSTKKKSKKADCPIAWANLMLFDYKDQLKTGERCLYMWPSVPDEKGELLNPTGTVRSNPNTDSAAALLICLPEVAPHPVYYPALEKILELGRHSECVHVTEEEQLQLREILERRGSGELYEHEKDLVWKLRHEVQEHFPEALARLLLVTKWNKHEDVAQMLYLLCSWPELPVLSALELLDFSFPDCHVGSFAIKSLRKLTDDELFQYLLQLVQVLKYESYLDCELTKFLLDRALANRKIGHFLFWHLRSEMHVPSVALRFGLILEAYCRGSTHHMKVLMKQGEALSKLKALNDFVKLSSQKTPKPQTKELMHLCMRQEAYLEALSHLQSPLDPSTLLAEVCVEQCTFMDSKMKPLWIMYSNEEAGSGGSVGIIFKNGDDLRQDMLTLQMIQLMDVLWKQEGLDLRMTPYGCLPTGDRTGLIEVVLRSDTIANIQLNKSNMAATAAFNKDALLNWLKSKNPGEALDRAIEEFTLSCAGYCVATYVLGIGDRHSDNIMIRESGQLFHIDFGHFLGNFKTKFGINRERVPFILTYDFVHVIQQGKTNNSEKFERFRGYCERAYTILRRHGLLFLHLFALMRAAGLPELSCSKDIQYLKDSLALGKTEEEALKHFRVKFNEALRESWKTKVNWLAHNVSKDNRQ
PI3Kδ (p110δ/p85α) Recombinant Human Protein, sequence (P27986 whole entry partner): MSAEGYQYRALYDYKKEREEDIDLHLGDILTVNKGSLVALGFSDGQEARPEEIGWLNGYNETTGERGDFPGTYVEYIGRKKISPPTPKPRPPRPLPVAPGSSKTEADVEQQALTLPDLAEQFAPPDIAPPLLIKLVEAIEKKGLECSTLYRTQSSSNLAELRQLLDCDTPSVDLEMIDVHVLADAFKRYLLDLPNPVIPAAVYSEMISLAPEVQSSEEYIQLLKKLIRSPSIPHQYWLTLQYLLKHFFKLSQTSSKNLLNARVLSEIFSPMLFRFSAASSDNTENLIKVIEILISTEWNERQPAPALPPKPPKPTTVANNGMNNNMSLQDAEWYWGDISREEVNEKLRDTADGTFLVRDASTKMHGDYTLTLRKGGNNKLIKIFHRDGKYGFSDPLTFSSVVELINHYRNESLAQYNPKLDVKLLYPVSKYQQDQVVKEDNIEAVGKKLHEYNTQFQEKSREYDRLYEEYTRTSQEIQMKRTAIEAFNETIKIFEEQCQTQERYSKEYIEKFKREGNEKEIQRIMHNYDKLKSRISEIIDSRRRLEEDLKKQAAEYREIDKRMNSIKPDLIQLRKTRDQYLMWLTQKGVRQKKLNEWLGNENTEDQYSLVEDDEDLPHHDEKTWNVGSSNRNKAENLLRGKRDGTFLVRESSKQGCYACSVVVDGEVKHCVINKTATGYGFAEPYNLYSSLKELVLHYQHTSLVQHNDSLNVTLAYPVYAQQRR

SMILES | IC50 [1] | IC50 [2]
Cc1ccc(S(C)(=O)=O)cc1-c1cnc2c(N)nc(C(=O)NCC3CCC(C(F)(F)F)CC3)cn12 (mixture of isomers) [Example 456, 8-amino-3-(2-methyl-5-(methylsulfonyl)phenyl)-N-((4-(trifluoromethyl)cyclohexyl)methyl)imidazo[1,2-a]pyrazine-6-carboxamide trifluoroacetate salt (1:1 cis/trans isomers)] | 100 to 500 nM | 100 to 500 nM
Cc1ccc(S(C)(=O)=O)cc1-c1cnc2c(N)nc(C(=O)NC3CCCN(CCO)C3)cn12 (racemic) [Example 460, 8-Amino-N-(1-(2-hydroxyethyl)piperidin-3-yl)-3-(2-methyl-5-(methylsulfonyl)phenyl)imidazo[1,2-a]pyrazine-6-carboxamide trifluoroacetate salt (racemic)] | > 2000 nM | 500 to 2000 nM
Cc1ccc(S(=O)(=O)[C@@H]2CCC[C@H](O)C2)cc1-c1cnc2c(N)ncnn12 (relative stereo) [Example 501, cis-3-((3-(4-Aminoimidazo[2,1-f][1,2,4]triazin-7-yl)-4-methylphenyl)sulfonyl)cyclohexan-1-ol] | 500 to 2000 nM | < 100 nM
Cc1ccc(S(=O)(=O)NCC2(C)COC2)cc1-c1cnc2c(N)cccn12 [Example 3, 3-(8-Aminoimidazo[1,2-a]pyridin-3-yl)-4-methyl-N-[(3-methyloxetan-3-yl)methyl]benzenesulfonamide trifluoroacetate] | > 2000 nM | 100 to 500 nM
CCS(=O)(=O)Nc1cc(-c2cnc3c(N)cc(Cl)cn23)c[nH]c1=O [Example 6, N-[5-(8-Amino-6-chloroimidazo[1,2-a]pyridin-3-yl)-2-oxo-1,2-dihydropyridin-3-yl]ethanesulfonamide trifluoroacetate] | > 2000 nM | 500 to 2000 nM
CCOc1ncc(-c2cnc3c(N)cc(Cl)cn23)cc1NS(=O)(=O)CC [Example 7, N-[5-(8-Amino-6-chloroimidazo[1,2-a]pyridin-3-yl)-2-ethoxypyridin-3-yl]ethanesulfonamide bis(trifluoroacetate)] | 500 to 2000 nM | 100 to 500 nM
Cc1ccc(S(C)(=O)=O)cc1-c1cnc2c(N)nc(-c3ccccc3F)cn12 [Example 40, 6-(2-Fluorophenyl)-3-[2-methyl-5-(methylsulfonyl)phenyl]imidazo[1,2-a]pyrazin-8-amine trifluoroacetate] | 100 to 500 nM | < 100 nM
COc1ccc(-c2cnc3c(N)nccn23)cc1S(=O)(=O)N[C@H]1CC[C@H](O)CC1 [Example 43, 5-(8-Aminoimidazo[1,2-a]pyrazin-3-yl)-N-(trans-4-hydroxycyclohexyl)-2-methoxybenzenesulfonamide] | < 100 nM | 100 to 500 nM
Cc1cc(-c2cnc3c(N)nccn23)cc(S(=O)(=O)N[C@H]2CC[C@H](O)CC2)c1 [Example 44, 3-(8-Aminoimidazo[1,2-a]pyrazin-3-yl)-N-(trans-4-hydroxycyclohexyl)-5-methylbenzenesulfonamide] | > 2000 nM | 500 to 2000 nM
Nc1nccn2c(-c3ccc(F)c(S(=O)(=O)N[C@H]4CC[C@H](O)CC4)c3)cnc12 [Example 45, 5-(8-Aminoimidazo[1,2-a]pyrazin-3-yl)-2-fluoro-N-(trans-4-hydroxycyclohexyl)benzenesulfonamide] | 500 to 2000 nM | < 100 nM
Nc1nccn2c(-c3ccc(Cl)c(S(=O)(=O)N[C@H]4CC[C@H](O)CC4)c3)cnc12 [Example 46, 5-(8-Aminoimidazo[1,2-a]pyrazin-3-yl)-2-chloro-N-(trans-4-hydroxycyclohexyl)benzenesulfonamide] | 100 to 500 nM | < 100 nM
Cc1ccc(S(=O)(=O)N2CCC(O)CC2)cc1-c1cnc2c(N)ncnn12 [Example 66, 1-{[3-(4-Aminoimidazo[2,1-f][1,2,4]triazin-7-yl)-4-methylphenyl]sulfonyl}piperidin-4-ol] | > 2000 nM | 100 to 500 nM
Cc1ccc(S(=O)(=O)NCC2CCOC2)cc1-c1cnc2c(N)ncnn12 (centres unmarked) [Example 67, 3-(4-Aminoimidazo[2,1-f][1,2,4]triazin-7-yl)-4-methyl-N-(tetrahydrofuran-3-ylmethyl)benzenesulfonamide] | > 2000 nM | 100 to 500 nM
Cc1ccc(S(=O)(=O)NC23CC(CO)(C2)C3)cc1-c1cnc2c(N)ncnn12 [Example 105, 3-(4-Aminoimidazo[1,2-f][1,2,4]triazin-7-yl)-N-(3-(hydroxymethyl)bicyclo[1,1,1]pentan-1-yl)-4-methylbenzenesulfonamide trifluoroacetate salt] | 500 to 2000 nM | < 100 nM
Cc1ccc(S(=O)(=O)N2CCC(O)C3(CC3)C2)cc1-c1cnc2c(N)ncnn12 (centres unmarked) [Example 119, 5-{[3-(4-aminoimidazo[2,1-f][1,2,4]triazin-7-yl)-4-methylphenyl]sulfonyl}-5-azaspiro[2.5]octan-8-ol] | > 2000 nM | 100 to 500 nM
Cc1ccc(S(=O)(=O)N2C3CCC2CC(O)C3)cc1-c1cnc2c(N)ncnn12 (centres unmarked) [Example 120, 8-{[3-(4-aminoimidazo[2,1-f][1,2,4]triazin-7-yl)-4-methylphenyl]sulfonyl}-8-azabicyclo[3.2.1]octan-3-ol] | 100 to 500 nM | < 100 nM
Cc1ccc(S(=O)(=O)N2CC(N3CCOCC3)C2)cc1-c1cnc2c(N)ncnn12 [Example 146, 7-(2-methyl-5-((3-morpholinoazetidin-1-yl)sulfonyl)phenyl)imidazo[2,1-f][1,2,4]triazin-4-amine, 2TFA] | 100 to 500 nM | < 100 nM
Cc1ccc(S(=O)(=O)N(C)C2CC2)cc1-c1cnc2c(N)ncnn12 [Example 148, 3-(4-aminoimidazo[2,1-f][1,2,4]triazin-7-yl)-N-cyclopropyl-N,4-dimethylbenzenesulfonamide] | 500 to 2000 nM | 100 to 500 nM
Cc1ccc(S(=O)(=O)N2CCCCC23CC3)cc1-c1cnc2c(N)ncnn12 [Example 149, 7-(5-((4-azaspiro[2.5]octan-4-yl)sulfonyl)-2-methylphenyl)imidazo[2,1-f][1,2,4]triazin-4-amine] | 100 to 500 nM | < 100 nM
Cc1ccc(S(=O)(=O)N2CC[C@@H](C#N)C2)cc1-c1cnc2c(N)ncnn12 [Example 150, (R)-1-((3-(4-aminoimidazo[2,1-f][1,2,4]triazin-7-yl)-4-methylphenyl)sulfonyl)pyrrolidine-3-carbonitrile] | 500 to 2000 nM | < 100 nM
Cc1ccc(S(C)(=O)=O)cc1-c1cnc2c(N)nc(C3CCOCC3)cn12 [Example 536, 3-(2-Methyl-5-(methylsulfonyl)phenyl)-6-(tetrahydro-2H-pyran-4-yl)imidazo[1,2-a]pyrazin-8-amine trifluoroacetate] | – | < 100 nM
CC(=O)N1CCC(c2cn3c(-c4cc(S(C)(=O)=O)ccc4C)cnc3c(N)n2)CC1 [Example 537, 1-(4-(8-Amino-3-(2-methyl-5-(methylsulfonyl)phenyl)imidazo[1,2-a]pyrazin-6-yl)piperidin-1-yl)ethan-1-one trifluoroacetate] | – | < 100 nM
COC(=O)N1CCC(c2cn3c(-c4cc(S(C)(=O)=O)ccc4C)cnc3c(N)n2)C1 (centres unmarked) [Example 538, Methyl 3-(8-amino-3-(2-methyl-5-(methylsulfonyl)phenyl)imidazo[1,2-a]pyrazin-6-yl)pyrrolidine-1-carboxylate trifluoroacetate] | – | 100 to 500 nM
Cc1ccc(S(=O)(=O)Nc2ccc(C(=O)NCC(F)(F)F)nc2)cc1-c1cnc2c(N)ncnn12 [Example 539, 5-((3-(4-Aminoimidazo[2,1-f][1,2,4]triazin-7-yl)-4-methylphenyl)sulfonamido)-N-(2,2,2-trifluoroethyl)picolinamide trifluoroacetate] | – | < 100 nM
